Source: patent US20170281714A1, “METHOD OF TREATMENT USING L[…] G[…] COOPERATE WITH IL-10 TO MODULATE INFLAMMATORY RESPONSE TRIGGERED IN HIV+ AND TB IMMUNE-C[…] PATIENTS” (Your Energy Systems, LLC, priority 2014, published 2017)

Key:
IL-10 = IL-10 secretion by macrophages infected ex vivo with M. Tb H37Rv (FIG. 3; healthy individuals and Type 2 diabetes mellitus); type: cell-based, human; conditions: NAC supplied in millimolar amounts
Source text: FIG. 3 is two bar graphs using various substances or compositions for raising glutathione in macrophages and how macrophages respond to these various methods. On the left is a control graph for healthy individuals. On the right is a graph for individuals affected with Type 2 diabetes mellitus.
The right graph of FIG. 3 depicts the response of macrophages from individuals with Type 2 diabetes mellitus ex vivo, which have been infected with M. Tb strain H37Rv.
Prior to the current invention, no method of lowering IL-10 in individuals with type 1 or type 2 diabetes mellitus has been proposed. Type 1 diabetes is an immune disorder in which the body's immune cells (white blood cells) attack and destroy insulin-producing beta cells in the pancreas. As a result, the body cannot produce insulin and glucose stays and builds up in the blood, where it damages all the organ systems. […] Similar to type 1 diabetes, type 2 causes a build-up of glucose in the blood which damages the body's organ systems. One of the key complications of Type 2 diabetes is prolonged infection and inhibited response to infection and poor wound healing. This Type 2 form of the disease is commonly referred to as adult-onset diabetes. Cytokine levels, such as for IL-10, in plasma samples can be determined by sandwich enzyme linked immunosorbent assay (ELISA) using assay kits from eBioscience (kit named ELISA Ready-Set-Go). […]

[1] = test system: Mycobacterium tuberculosis; conditions: NAC at 10 millimolar; cited from earlier work

CC(=O)N[C@@H](CS)C(=O)O [NAC, N-acetyl cysteine]
IL-10 level from macrophages in cell culture (IL-10): reduce to normal | M. tuberculosis CFU/ml in macrophages [1]: 8,000 CFU/ml
